Test results as given in BindingDB's records for doi:10.1074/jbc.M113.529529 (The University of Tokyo, 2014).
pKi: −log10 of the molar value.

target: T1, Beta-galactosidase [24-677,I51T] (Human, UniProt P16278, I51T); assay: β-Gal Inhibitory Assay; settings: pH 4.5; 37 °C
T1 construct: 24-677
Protocol: (§1) β-Gal activity was measured by using 4-methylumbelliferyll-β-D-galactopyranoside in buffer B (0.15 M sodium citrate, pH 4.5, and 0.2 M NaCl) as a substrate, and incubating at 37 °C for 6 min.

| SMILES | pKi |
| --- | --- |
| OC[C@H]1OC(O)[C@H](O)[C@@H](O)[C@H]1O (stereo not given in full) [Galactose] | 2.31 |
| CCCC/N=C1/SCC2[C@H](O)[C@H](O)C(O)[C@@H](O)N12 (stereo partly drawn) [5N,6S-(N'-butyliminomethylidene)-6-thiogalactonojirimycin] | 3.50 |
| CCCCNC(=S)N1CC(O)[C@@H](O)[C@@H](O)C1CO (stereo not given in full) [N-(N'-butylthiocarbamoyl)-1-deoxygalactonojirimycin] | 3.48 |
| CCCC/N=C1\SC[C@@H]2[C@H](O)[C@H](O)[C@@H](O)CN12 [5N,6S-(N'-butyliminomethylidene)-6-thio-1-deoxygalactonojirimycin] | 4.16 |
| CCCCCCCCN[C@H]1C=C(CO)[C@@H](O)[C@H](O)[C@H]1O [NOEV] | 5.92 |

target: T2, Beta-galactosidase [24-677,R201C] (Human, UniProt P16278, R201C); assay: β-Gal Inhibitory Assay; settings: pH 4.5; 37 °C
T2 construct: 24-677
Protocol: as §1

| SMILES | pKi |
| --- | --- |
| OC[C@H]1OC(O)[C@H](O)[C@@H](O)[C@H]1O (stereo not given in full) [Galactose] | 2.25 |
| CCCC/N=C1/SCC2[C@H](O)[C@H](O)C(O)[C@@H](O)N12 (stereo partly drawn) [5N,6S-(N'-butyliminomethylidene)-6-thiogalactonojirimycin] | 3.49 |
| CCCCNC(=S)N1CC(O)[C@@H](O)[C@@H](O)C1CO (stereo not given in full) [N-(N'-butylthiocarbamoyl)-1-deoxygalactonojirimycin] | 3.41 |
| CCCC/N=C1\SC[C@@H]2[C@H](O)[C@H](O)[C@@H](O)CN12 [5N,6S-(N'-butyliminomethylidene)-6-thio-1-deoxygalactonojirimycin] | 4.27 |
| CCCCCCCCN[C@H]1C=C(CO)[C@@H](O)[C@H](O)[C@H]1O [NOEV] | 6.03 |

target: T3, Beta-galactosidase [24-677] (Human, UniProt P16278); assay: β-Gal Inhibitory Assay; settings: pH 4.5; 37 °C
T3 construct: 24-677
T3 sequence (P16278 whole entry): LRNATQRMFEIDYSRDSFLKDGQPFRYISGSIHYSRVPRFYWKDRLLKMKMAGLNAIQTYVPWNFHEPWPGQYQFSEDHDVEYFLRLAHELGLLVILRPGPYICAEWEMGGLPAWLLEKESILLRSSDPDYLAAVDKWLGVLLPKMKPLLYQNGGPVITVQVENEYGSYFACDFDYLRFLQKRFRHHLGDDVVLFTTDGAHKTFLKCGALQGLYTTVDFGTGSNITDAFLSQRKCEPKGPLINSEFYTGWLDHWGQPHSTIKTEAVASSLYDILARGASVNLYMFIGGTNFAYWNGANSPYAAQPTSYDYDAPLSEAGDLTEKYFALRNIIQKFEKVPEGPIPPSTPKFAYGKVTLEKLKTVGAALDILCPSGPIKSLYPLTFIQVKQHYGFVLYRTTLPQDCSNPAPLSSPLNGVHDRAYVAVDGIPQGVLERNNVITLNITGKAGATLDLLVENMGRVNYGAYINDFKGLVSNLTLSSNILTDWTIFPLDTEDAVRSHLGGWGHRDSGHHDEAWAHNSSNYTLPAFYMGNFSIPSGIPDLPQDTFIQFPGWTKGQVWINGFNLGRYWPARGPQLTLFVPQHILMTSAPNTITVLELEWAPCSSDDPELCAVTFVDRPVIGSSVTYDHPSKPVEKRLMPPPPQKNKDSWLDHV
Protocol: as §1

| SMILES | pKi |
| --- | --- |
| OC[C@H]1OC(O)[C@H](O)[C@@H](O)[C@H]1O (stereo not given in full) [Galactose] | 2.38 |
| CCCC/N=C1/SCC2[C@H](O)[C@H](O)C(O)[C@@H](O)N12 (stereo partly drawn) [5N,6S-(N'-butyliminomethylidene)-6-thiogalactonojirimycin] | 3.60 |
| CCCCNC(=S)N1CC(O)[C@@H](O)[C@@H](O)C1CO (stereo not given in full) [N-(N'-butylthiocarbamoyl)-1-deoxygalactonojirimycin] | 3.43 |
| CCCC/N=C1\SC[C@@H]2[C@H](O)[C@H](O)[C@@H](O)CN12 [5N,6S-(N'-butyliminomethylidene)-6-thio-1-deoxygalactonojirimycin] | 4.17 |
| CCCCCCCCN[C@H]1C=C(CO)[C@@H](O)[C@H](O)[C@H]1O [NOEV] | 5.96 |
